Reference: patent publication US10266823B2, “Small molecules that enhance the activity of oligonucleotides” (The University of North Carolina at Chapel Hill, priority 2014, dated 2019)

Tests used:
A375Luc705 cells = experiment: Luciferase induction by RGD-SSO-albumin conjugate; format: cell-based, human; conditions: 2 h, 100 nM RGD-SSO-albumin conjugate
Description: FIG. 2. Effects on Receptor-Targeted oligonucleotides. A375Luc705 cells were treated with 100 nM RGD-SSO-albumin conjugate for 16 h and subsequently treated with Retro-1 (100 uM) or 7938 (5, 10 uM) for 2 h. After removal of the compound the cells were incubated for a further 24 h and then assayed for luciferase and cell protein. (A) Control; (B) RGD-SSO conjugate only; (C) RGD-SSO conjugate plus Retrol; (D) RGD-SSO conjugate plus 5 uM 7938; (E) RGD-SSO conjugate plus 10 uM 7938. Means+/−SE. N=3.
Our laboratory has pursued the use of ligand-oligonucleotide conjugates to attain receptor-selective targeted delivery (Alam, M. R., et al., Bioconjugate chemistry, 22, 1673-1681 (2011), Ming, X., et al., Biomaterials, 34, 7939-7949 (2013), Nakagawa, O., et al., Bioconjugate chemistry, 25, 165-170 (2014)). Thus we were interested in whether our compounds would affect oligonucleotides that enter cells by receptor-mediated endocytosis. We used a previously described (Ming, X., et al., Biomaterials, 34, 7939-7949 (2013)) multivalent conjugate comprised of several RGD peptide-conjugated morpholino SSOs further conjugated via bioreversible links to serum albumin as a carrier. […] We examined luciferase induction in αvβ3-expressing A375 melanoma cells that contain the Luc705 expression cassette. […] Thus 7938 can substantially enhance effects of receptor targeted oligonucleotide conjugates. […]

HeLaLuc705 cells [1] = experiment: SSO623-mediated luciferase induction (splice correction), 24 well format; format: cell-based, human; conditions: for enhancement of luciferase induction as compared to SSO alone: 2 h, 100 nM SSO623
Description: FIG. 1B. SSO Dose-response of hit compounds. Selected hits were examined for their ability to enhance splice correction by SSO623 in the HeLa Luc 705 cell system. Cells were incubated in 24 well plates with 100 nM 623 or its mismatched control (MM) for 16 h in DMEM+10% FBS, rinsed, and then treated with various concentrations of the hit compounds, or with 100 uM Retro-1, for 2 h. The cells were then rinsed and incubation continued for an additional 4 h in DMEM+10% FBS. Cells were rinsed twice in PBS and luciferase activity (RLU) and cell protein determined. Means+/−SE. N=3. Mismatched controls were at baseline level on this scale and are not shown.
(§1) Luciferase induction dose-response curves in a 24 well plate format with normalization on cell protein were performed as previously described (Alam, M. R. et al., Nucleic Acids Res, 36, 2764-2776 (2008), Ming, X., et al., Nucleic Acids Res, 38, 6567-6576 (2010)). Splicing modulation of the EGFP654 reporter and of endogenous Bcl-X were monitored by RT-PCR using appropriate primers. Evaluation of hit compound effects on antisense actions involved ‘knockdown’ of MDR1 pre-mRNA and its protein product in multi-drug resistant mouse 3T3 cells. Cell surface expression of P-glycoprotein was monitored using an Alexa-488 conjugated monoclonal antibody and flow cytometry as previously described (Ming, X. et al., Nucleic Acids Res, 41, 3673-3687 (2013), Fisher, M., et al., Nucleic Acids Res, 35, 1064-1074 (2007)). Evaluation of effects on siRNA utilized a HeLa cell line stably transfected with an EGFP expression cassette. Cholesterol-conjugated siRNAs were used to attain sufficient uptake. Cells were incubated with the siEGFP or control siRNA, rinsed, and then briefly exposed to hit compound. After further incubation expression of EGFP was monitored by flow cytometry. In cases where treatment with Lipofectamine 2000 was used as a positive control, the manufacturer's protocol was followed.

HeLaLuc705 cells [2] = experiment: High throughput screen, SSO623 luciferase induction, 384 well; format: cell-based, human; conditions: library compounds at 25 uM, 5 h; 100 nM SSO623
Description: Our high throughput screen (HTS) utilized HeLaLuc705 cells. Delivery of an appropriate SSO to the nucleus corrects splicing and induces luciferase expression thus providing an easily interpreted positive readout (Iam, M. R. et al., Nucleic Acids Res, 36, 2764-2776 (2008), Ming, X., et al., Nucleic Acids Res, 38, 6567-6576 (2010)). Cells were trypsinized, rinsed, and suspended in Opti-MEM at 300,000 cells/ml; SSO623 was added to a final concentration of 100 nM. No lipid or polymer transfection agents were used in these assays. Opti-MEM (15 ul) followed by cell suspension (20 ul) was added to wells of 384 well plates. Cells were allowed to attach and incubate with the SSO for 16 h. During this 16 h period a set of positive control wells received chloroquine to a final concentration of 300 uM while a set of negative control wells received diluent. After the initial incubation the remaining wells received library compounds to a final concentration of 25 uM. Incubation with library compounds was at 37 C for 5 h at which time the cells were harvested and analyzed for luciferase induction. Library compounds that produced an induction of 50% that of the positive controls were considered positive in this assay and were further analyzed. Dose-response curves were developed comparing SSO623 with a mis-matched oligonucleotide. […]

[3] = tested on: HeLa cell line stably transfected with an EGFP expression cassette; experiment: Cholesterol-conjugated siEGFP reduction of EGFP, flow cytometry; format: cell-based, human; conditions: cholesterol-conjugated siRNA
Description: as §1

EGFP654 transgenic mouse = experiment: In vivo splice correction in EGFP654 transgenic mouse
Description: FIG. 4. In vivo effects: Quantitation of RT-PCR. Gel bands were quantitated using a Typhoon imaging system. Percent of switching is the ratio of lower band to upper band ×100. *** difference from PBS control significant at the 0.001 level.
(§2) All animal procedures were in accordance with guidelines of the UNC Laboratory Animal Medicine Department and with federal guidelines. The EGFP654 transgenic mouse has been described previously (Sazani, P., et al., Nature biotechnology, 20, 1228-1233 (2002), Roberts, J., et al., Mol Ther, 14, 471-475 (2006)). A reporter gene comprised of the EGFP coding sequence is interrupted by an aberrantly spliced intron. Delivery of an appropriate SSO to the nucleus of tissue cells will correct splicing leading the expression of normal EGFP mRNA and protein. EGFP654 mice were administered 25 mg/kg SS0623 or mis-matched oligonucleotide in PBS by intra-peritoneal injection on two consecutive days. One day later the mice received 7.5 mg/kg UNC10217938A intravenously in a diluent of 5% PEG400, or diluent only. After 24 h the mice were euthanized and cardiac blood and tissues samples collected. Tissues for fluorescence microscopy to visualize EGFP were fixed in cold 1.5% paraformaldehyde in PBS and then processed for cryosectioning (Sazani, P., et al., Nature biotechnology, 20, 1228-1233 (2002)). Tissues for RNA analysis were collected from mice euthanized at 4 h and ere quick frozen on dry ice. All procedures involving live animals were conducted by the UNC Animal Studies Core facility. Blood samples were analyzed by the UNC Animal Clinical Chemistry Core facility.
In the EGFP654 transgenic line a reporter gene comprised of the EGFP coding sequence is interrupted by an aberrantly spliced intron. Effective delivery of an appropriate SSO to the nucleus of tissue cells will correct splicing leading to expression of normal EGFP mRNA and protein in that tissue. We visualized EGFP expression by fluorescence microscopy of tissue cryosections and evaluated correction of EGFP pre-mRNA splicing by RT-PCR. […]

EGFP654 mice = experiment: Acute toxicity, blood chemistry parameters in EGFP654 mice; format: in vivo, mouse; conditions: 7.5 mg/kg i.v.; data not shown
Description: as §2

C57BL/6 mice = experiment: 7 day toxicity study; format: in vivo; conditions: doses that overlap those of FIG. 4, data not shown
[4] = tested on: P-glycoprotein multidrug transporter in multi-drug resistant 3T3 cells; experiment: Antisense knockdown of P-glycoprotein (anti-MDR1 ASO), flow cytometry; format: cell-based, mouse
Description: as §1, with “followed. […]” for “followed.”

HeLa cells = experiment: Live cell confocal microscopy: subcellular distribution of TAMRA oligonucleotide and organelle markers; format: cell-based, human
Description: FIG. 3A: Effects on Cell Morphology and Subcellular Distribution of Oligonucleotide: Quantitation of Colocalization. HeLa cells were transfected with baculovirus expression vectors for GFP-Rab7a (late endosome marker) or GFP-LAMP-1 (lysosome marker). The cells were then incubated with 300 nM SSO 623-TAMRA for 16 h. Cells were then treated with 10 uM 7938 for 1 h or maintained as controls. Live cells were imaged using a confocal microscope with environmental stage. Co-localization of GFP and TAMRA oligonucleotide was quantitated using the Image J Coloc2 plug-in and expressed as the Manders correlation coefficient. Individual cells were analyzed and the data summated. Means and standard errors shown. N=9-20. ** represents p<0.002 compared to Rab 7 control.
FIG. 3B. Effects on Cell Morphology and Subcellular Distribution of Oligonucleotide: Nuclear Accumulation. TAMRA fluorescence intensity in the nucleus was quantitated using Image J. Means and standard errors shown. N=55-70. *** represents p<0.001 compared to Control.
Quantitative live cell confocal microscopy (Dunn, K. W., et al., Am J Physiol Cell Physiol, 300, C723-742 (2011)) was performed to examine the subcellular distribution of fluorescent oligonucleotide or of certain markers for endomembrane compartments. Cells (HeLa) were transfected with baculovirus expression vectors for GFP chimeras of marker proteins for several endomembrane compartments. The day following transfection, cells were incubated for 4 h with 300 nM TAMRA conjugated SSO 623 in OptiMEM after which the cells were washed and incubated in DMEM medium with 1% FBS. In some cases hit compounds were added during or after the incubation. Cells were imaged on an Olympus FV1000 MPE laser scanning confocal microscope with environmental chamber to maintain 37 C, 40% humidity and 5% C02. We used 488 nm (GFP) and 559 nm (TAMRA) as laser lines, and images were collected with a 60× oil immersion lens. Quantitation of co-localization of oligonucleotide and marker proteins utilized the Coloc2 plug-in in Image J. In some cases GFP markers for organelles were examined in cells previously fixed in 4% formaldehyde in PBS.

[5] = 10 uM, 1 h, Manders correlation coefficient

With `CCC(=O)N1CC(=O)Nc2ccc(Br)cc2C1c1ccccc1` (stereo not shown) [Retro-1, reference compound] the “ability of the conjugate to induce luciferase” value (A375Luc705 cells; 100 uM compound) was “increased” and the “enhancement of luciferase induction as compared to SSO alone” value (“enhancement … compared to SSO alone” for short) (HeLaLuc705 cells [1]; 100 uM compound) was 11 fold.

In the case of `CCOC(=O)Nc1cc(NCCN(C)C)c2nc(-c3ccccc3)c(-c3ccccc3)nc2n1` [compound 7938], the “activity in high throughput screen” value (HeLaLuc705 cells [2]) is reported as “active”, the “ability of the conjugate to induce luciferase” value (A375Luc705 cells; 5 or 10 uM compound, compared with 100 uM Retro-1) is reported as “far larger impact” and the “ability of siEGFP to reduce levels of EGFP” value [3] is reported as “enhanced”. For the same compound, the “EGFP fluorescence in liver, kidney and heart” value (EGFP654 transgenic mouse; SS0623 25 mg/kg i.p. on two days, then 7.5 mg/kg compound i.v., 24 h) was “distinct increases”, the “correction of EGFP pre-mRNA splicing by RT-PCR in liver, kidney and heart” value (EGFP654 transgenic mouse; SS0623 followed by compound, RNA at 4 h) was “correctly spliced EGFP message was found” and the “EGFP induction in skeletal muscle” value (EGFP654 transgenic mouse; SS0623 followed by compound, data not shown) was “not strongly affected”. For the same compound, the “acute toxicity (blood chemistry parameters)” value (EGFP654 mice) was “did not result in acute toxicity”, the toxicity (C57BL/6 mice) was “no significant evidence of toxicity” and the “amount of ASO at which strong effects were observed” value ([4]; ASO varied, constant concentration of compound) was 5 nM. The “enhancement of ASO action (P-glycoprotein knockdown)” value ([4]; anti-MDR1 ASO, data not shown) was “strongly enhanced”, the “co-localization of TAMRA-oligonucleotide with late endosome marker Rab7” value (HeLa cells; [5]) was “major reduction” and the “co-localization of TAMRA-oligonucleotide with lysosomal marker LAMP-1” value (HeLa cells; [5]) was “little effect”. For the same compound, the “accumulation of Tamra-oligonucleotide in the nucleus” value (HeLa cells; TAMRA fluorescence intensity in the nucleus) was “increase”, the “release of fluorescent dextran from endosomes” value (HeLa cells; dextran of molecular mass similar to an oligonucleotide, data not shown) was “partially released” and the “enhancement … compared to SSO alone” value (HeLaLuc705 cells [1]; 10 uM compound) was 60 fold. The “enhancement … compared to SSO alone” value (HeLaLuc705 cells [1]; 20 uM compound) was 220 fold and the “amount of SSO at which strong induction effects were observed” value (HeLaLuc705 cells [1]; SSO varied, constant concentration of compound) was 3 nM.
